Results on two molecules are retold here after patent US8404720B2, “Aryl sulfonamide amine compounds and their use as 5-HT6 ligands” (Suven Life Sciences Limited, priority 2008, dated 2013).

The subject of one series is rats. The series is described as follows: Water Maze (scopolamine induced reversal). It counts as in vivo. The following applies: p.o. As to the method:
The water maze apparatus consisted of a circular pool (1.8 m diameter, 0.6 m high) constructed in black Perspex (TSE systems, Germany) filled with water (24±2° C.) and positioned underneath a wide-angled video camera to track animal. The 10 cm^2 perspex platform, lying 1 cm below the water surface, was placed in the centre of one of the four imaginary quadrants, which remained constant for all rats. The black Perspex used in the construction of the maze and platform offered no intramaze cues to guide escape behavior. By contrast, the training room offered several strong extramaze visual cues to aid the formation of the spatial map necessary for escape learning. An automated tracking system, [Videomot 2 (5.51), TSE systems, Germany] was employed. This program analyzes video images acquired via a digital camera and an image acquisition boards that determined path length, swim speed and the number of entries and duration of swim time spent in each quadrant of the water maze.

The nature of series [1]: Rodent Brain Penetration Study. Type of series: in vivo, Male Wister rats. The following applies: Wistar/Male rat, Intravenous infusion, 1 mg/kg, brain/plasma. As to the method: Male Wister rats (230-280 grams) obtained from NIN (National Institute of Nutrition, Hyderabad, India) was used as an experimental animal. Three animals were housed in each cage. Animals were given water and food ad libitum throughout the experiment, and maintained on a 12 hours light/dark cycle.
Brain penetration was determined at steady state in rat. One day prior to dosing day, male wistar rats (225-250 grams) were anesthetized with halothane for surgical placement of jugular and femoral vein catheters. After surgery, the rats were housed in individual rat infusion cage connected with infusion components (Instech Solomon; Plymouth Meeting, Pa. USA) and allowed free access to food and water
NCE compound was dissolved in water and administered at a constant infusion rate (5 mL/kg/hr) over 6-10 hours at a target dose rate of 1.0 mg free base/kg/h. Blood samples were removed during the latter part of the infusion to confirm steady-state blood concentrations, brain and blood was collected and estimated. Animals will be sacrificed to collect the plasma and brain tissue and was homogenized. Plasma and Brain was stored frozen at −20° C. until analysis. The concentrations of the NCE compound in plasma and Brain were determined using LC-MS/MS method.
The NCE compounds were quantified in plasma and brain homogenate by validated LC-MS/MS method using solid phase extraction technique. NCE compounds were quantified in the calibration range of 1-500 ng/mL in plasma and brain homogenate. Study samples were analyzed using calibration samples in the batch and quality control samples spread across the batch. Extents of brain-blood ratio were calculated (Cb/Cp).

A further series concerns the target Human 5-HT6 Receptor (Homo sapiens, UniProt P50406). The series is described as follows: Binding Assay for Human 5-HT6 Receptor ([3H]LSD radioligand). The settings on record: [3H]LSD 1.5 nM, human recombinant receptor in HEK293 cells.
A short description of series [2]: Rodent Pharmacokinetic Study. It counts as in vivo, Male wistar rats. The following applies: Wistar/Male rat; for AUCt / T1/2 / Tmax / Cmax: 50% PEG-400 in water for injection; for Cmax: plasma. As to the method:
Male wistar rats (230-280 grams) obtained from NIN (National Institute of Nutrition, Hyderabad, India) were used as an experimental animal.
Three to five animals were housed in each cage. Animals were kept fasted over night and maintained on a 12 hours light/dark cycle. […]
At each time point blood was collected by jugular vein. Plasma was stored frozen at −20° C. until analysis. The concentrations of the NCE compound in plasma were determined using LC-MS/MS method.
Schedule time points: Pre dose. 0.25, 0.5, 1, 1.5, 2, 3, 4, 6, 8, 10, 12 and 24 hours after dosing (n=3). The NCE compounds were quantified in plasma by validated LC-MS/MS method using solid phase extraction technique. NCE compounds were quantified in the calibration range of 2-2000 ng/mL in plasma. Study samples were analyzed using calibration samples in the batch and quality control samples spread across the batch.
Pharmacokinetic parameters Cmax, Tmax, AUCt, AUCinf, half life, volume of distribution, clearance, mean residence time and thereby oral bioavailability were calculated by non-compartmental model using software WinNonlin version 5.1.

A further series concerns Male Wister rats. The series is described as follows: Object Recognition Task Model. Type of series: in vivo. The settings on record: rat, 3 mg/kg p.o. How it is done:
The cognition-enhancing properties of compounds of this invention were estimated using a model of animal cognition: the object recognition task model.
Male Wister rats (230-280 grams) obtained from N. I. N. (National Institute of Nutrition, Hyderabad, India) was used as experimental animals. Four animals were housed in each cage. Animals were kept on 20% food deprivation before one day and given water ad libitum throughout the experiment and maintained on a 12 hours light/dark cycle. Also the rats were habituated to individual arenas for 1 hour in the absence of any objects.
One group of 12 rats received vehicle (1 mL/Kg) orally and another set of animals received compound of the formula (I) either orally or i.p., before one hour of the familiar (T1) and choice trial (T2).
The experiment was carried out in a 50×50×50 cm open field made up of acrylic. In the familiarization phase, (T1), the rats were placed individually in the open field for 3 minutes, in which two identical objects (plastic bottles, 12.5 cm height×5.5 cm diameter) covered in yellow masking tape alone (a1 and a2) were positioned in two adjacent corners, 10 cm. from the walls. After 24 hours of the (T1) trial for long-term memory test, the same rats were placed in the same arena as they were placed in T1 trial. Choice phase (T2) rats were allowed to explore the open field for 3 minutes in presence of one familiar object (a3) and one novel object (b) (Amber color glass bottle, 12 cm high and 5 cm in diameter). Familiar objects presented similar textures, colors and sizes. During the T1 and T2 trial, explorations of each object (defined as sniffing, licking, chewing or having moving vibrissae whilst directing the nose towards the object at a distance of less than 1 cm) were recorded separately by stopwatch. Sitting on an object was not regarded as exploratory activity, however, it was rarely observed.
T1 is the total time spent exploring the familiar objects (a1+a2).
T2 is the total time spent exploring the familiar object and novel object (a3+b).
The object recognition test was performed as described by Ennaceur, A., Delacour, J., A new one-trial test for neurobiological studies of memory in rats—Behavioural data, Behay. Brain Res., 1988, 31, 47-59.

Chain of Human 5-HT6 Receptor (P50406 whole entry): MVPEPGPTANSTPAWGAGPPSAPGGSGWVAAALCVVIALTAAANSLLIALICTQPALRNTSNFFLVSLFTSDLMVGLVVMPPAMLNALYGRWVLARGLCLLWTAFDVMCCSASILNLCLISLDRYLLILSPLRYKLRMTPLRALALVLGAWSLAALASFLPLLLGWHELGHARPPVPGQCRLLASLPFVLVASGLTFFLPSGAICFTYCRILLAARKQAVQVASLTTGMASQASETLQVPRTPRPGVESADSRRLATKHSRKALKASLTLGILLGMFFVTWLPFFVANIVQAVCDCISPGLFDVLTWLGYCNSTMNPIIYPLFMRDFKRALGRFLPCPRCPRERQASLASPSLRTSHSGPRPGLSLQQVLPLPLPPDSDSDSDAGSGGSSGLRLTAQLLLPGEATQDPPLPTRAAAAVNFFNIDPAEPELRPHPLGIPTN
Method for Human 5-HT6 Receptor: Receptor source: Human recombinant expressed in HEK293 cells
Radioligand: [^3H]LSD (60-80 Ci/mmol)
Final ligand concentration— [1.5 nM]
Non-specific determinant: Methiothepin mesylate— [0.1 μM]
Reference compound: Methiothepin mesylate
Positive control: Methiothepin mesylate
Reactions were carried out in 50 μM TRIS-HCl (pH 7.4) containing 10 μM MgCl2, 0.5 mM EDTA for 60 minutes at 37° C. The reaction was terminated by rapid vacuum filtration onto glass fiber filters. Radioactivity trapped onto the filters was determined and compared to control values in order to ascertain any interactions of test compound(s) with the cloned serotonin 5-HT6 binding site.

Molecule `COc1ccc(NS(=O)(=O)c2ccccc2Br)cc1N(C)C1CCN(C)CC1` displayed a melting point of 119.2 to 121.3 °C.

For `Cc1ccc(NS(=O)(=O)c2ccccc2Br)cc1NC1CCN(C)CC1` [Example 15, 2-Bromo-N-[4-Methyl-3-(1-methylpiperidin-4-ylamino)phenyl] benzenesulfonamide], in the series with rats, the “Scopolamine Induced Reversal” value is “≦3 mg/kg, p.o”. The “Steady State Brain Penetration (Cb/Cp)” value in series [1] is 0.35 ± 0.08. Besides, the “% Inhibition at 100 nM” value at Human 5-HT6 Receptor (100 nM test compound) worked out at 99.44%. For the same molecule, the “% Inhibition at 1000 nM” value on Human 5-HT6 Receptor (1000 nM test compound) is 104.28%. In series [2] (Intravenous, 5 mg/kg), the AUCt worked out at 1231 ± 52 ng·h/mL, the T1/2 is listed as 3.08 ± 2.11 h, the Tmax worked out at 0.08 ± 0.0 h and the Cmax was found to be 727 ± 18 ng/mL. For the same molecule, in series [2] (Oral, 10 mg/kg), the AUCt was found to be 2462 ± 901 ng·h/mL, the T1/2 is recorded as 3.15 ± 2.99 h, the time to peak (Tmax) was 2.33 ± 1.15 h and the maximum concentration (Cmax) is 503 ± 263 ng/mL. This molecule returned a Bioavailability in series [2] (oral 10 mg/kg versus intravenous) of 99%. The “Exploration time mean ± S.E.M (sec), first value column” value in the series on Male Wister rats (choice trial T2, first of two columns (sub-head not printed, presumably familiar object)) stood at 6.89 ± 1.54 s. In addition, the “Exploration time mean ± S.E.M (sec), second value column” value in the series on Male Wister rats (choice trial T2, second of two columns (sub-head not printed, presumably novel object)) is 13.26 ± 2.80 s. Moreover, the Inference result in the series with Male Wister rats (object recognition task) is given as “Active”.

For orientation: melting point means the temperature of the solid-liquid transition. A word on the % Inhibition: it is the change of the read-out against control, counted positive when it falls. A word on the Tmax: it is the time at which the peak concentration occurs. One may read the Cmax as the peak of the concentration-time curve.
